Measurements taken from the supplement of paper PMC11061612.

What was measured:
Test in all cases: Bliss excess, mean over the matrix (fraction); higher = more synergy
[1] = tested on: COR-L23 (Non-Small Cell Lung Carcinoma)
In short: (§1)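 Bliss excess equals the observed combination effect minus the expected value EA + EB − EA·EB, where EA and EB are the effects of each agent alone. Combination Emax is the second-highest inhibition within the matrix. Inhibition was scaled from CellTiter-Glo 2.0 luminescence, with 0 set by vehicle wells and 1 by blank wells, after 72 hours of two-drug dosing of cells plated in 1536-well plates.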

[2] = tested on: TGBC24TKB (Biliary Tract Carcinoma)
In short: as §1

[3] = tested on: LU-99A (Non-Small Cell Lung Carcinoma)
In short: as §1

[4] = tested on: KARPAS-620 (Plasma Cell Myeloma)
In short: as §1

[5] = tested on: HT-29 (Colorectal Carcinoma)
In short: as §1

[6] = tested on: CFPAC-1 (Pancreatic Carcinoma)
In short: as §1

[7] = tested on: MDA-MB-231 (Breast Carcinoma)
In short: as §1

[8] = tested on: KATOIII (Gastric Carcinoma)
In short: as §1

[9] = tested on: SNU-C5 (Colorectal Carcinoma)
In short: as §1

J82 (Bladder Carcinoma) = tested on: J82 (Bladder Carcinoma)
In short: as §1

[10] = tested on: CTV-1 (T-Lymphoblastic Leukemia)
In short: as §1

[11] = tested on: SW756 (Cervical Carcinoma)
In short: as §1

[12] = tested on: COR-L95 (Small Cell Lung Carcinoma)
In short: as §1

CAL-78 (Chondrosarcoma) = tested on: CAL-78 (Chondrosarcoma)
In short: as §1

[13] = tested on: SW1990 (Pancreatic Carcinoma)
In short: as §1

[14] = tested on: HCC2157 (Breast Carcinoma)
In short: as §1

IGR-1 (Melanoma) = tested on: IGR-1 (Melanoma)
In short: as §1

[15] = tested on: NCI-H1793 (Lung Adenocarcinoma)
In short: as §1

[16] = tested on: SW1088 (Low Grade Glioma)
In short: as §1

[17] = tested on: U-266 (Plasma Cell Myeloma)
In short: as §1

Question: For `CN(C)CCCOc1ccc(-c2ccc3ncc4c(c3c2)n(C2CCOCC2)c(=O)n4C)cn1` [AZD0156] + C=CCn1c(=O)c2cnc(Nc3ccc(N4CCN(C)CC4)cc3)nc2n1-c1cccc(C(C)(C)O)n1 [AZD1775] (first compound max 1 µM, partner max 1 µM), which Bliss excess [1] is on record?
Answer: 0.0047

Question: What about the Bliss excess [2] of the same molecule?
Answer: -0.0224

Question: And the Bliss excess [3]?
Answer: -0.0422

Question: And the Bliss excess [4]?
Answer: 0.0135

Question: And the Bliss excess [5]?
Answer: -0.0411

Question: And the Bliss excess [6]?
Answer: -0.0645

Question: What about the Bliss excess [7] of the same molecule?
Answer: -0.0415

Question: What about the Bliss excess [8] of the same molecule?
Answer: -0.064

Question: And the Bliss excess [9]?
Answer: -0.0296

Question: And the Bliss excess (J82 (Bladder Carcinoma))?
Answer: -0.0194

Question: What about the Bliss excess [10] of the same molecule?
Answer: -0.0169

Question: And the Bliss excess [11]?
Answer: -0.0386

Question: What about the Bliss excess [12] of the same molecule?
Answer: -0.107

Question: What about the Bliss excess (CAL-78 (Chondrosarcoma)) of the same molecule?
Answer: -0.0854

Question: What about the Bliss excess [13] of the same molecule?
Answer: -0.0358

Question: And the Bliss excess [14]?
Answer: -0.0233

Question: And the Bliss excess (IGR-1 (Melanoma))?
Answer: -0.031

Question: What about the Bliss excess [15] of the same molecule?
Answer: -0.0489

Question: What about the Bliss excess [16] of the same molecule?
Answer: -0.0738

Question: What about the Bliss excess [17] of the same molecule?
Answer: 0.0168

Question: What does the source list for `CN(C)CCCOc1ccc(-c2ccc3ncc4c(c3c2)n(C2CCOCC2)c(=O)n4C)cn1` [AZD0156] + CCN(CCO)CCCOc1ccc2c(Nc3cc(CC(=O)Nc4cccc(F)c4)[nH]n3)ncnc2c1 [AZD2811] (first compound max 1 µM, 7x7, partner max 1 µM)?
Answer: Bliss excess [1]: -0.0073; Bliss excess [2]: -0.0009; Bliss excess [3]: -0.0341; Bliss excess [4]: 0.112; Bliss excess [5]: -0.0109; Bliss excess [6]: -0.0713; Bliss excess [7]: -0.0296; Bliss excess [8]: -0.0366; Bliss excess [9]: 0.0043; Bliss excess (J82 (Bladder Carcinoma)): 0.0201; Bliss excess [10]: 0.0458; Bliss excess [11]: -0.016; Bliss excess [12]: -0.0116; Bliss excess (CAL-78 (Chondrosarcoma)): 0.006; Bliss excess [13]: -0.0536; Bliss excess [14]: 0.112; Bliss excess (IGR-1 (Melanoma)): -0.0235; Bliss excess [15]: -0.0309; Bliss excess [16]: -0.0291; Bliss excess [17]: 0.0028

Question: With `CN(C)CCCOc1ccc(-c2ccc3ncc4c(c3c2)n(C2CCOCC2)c(=O)n4C)cn1` [AZD0156] + C[C@@H]1COCCN1C2=NC(=NC(=C2)C3(CC3)[S@](=N)(=O)C)C4=C5C=CNC5=NC=C4 [AZD6738] (first compound max 1 µM, 7x7, partner max 10 µM) as the molecule, how does the Bliss excess [1] read?
Answer: 0.045

Question: What about the Bliss excess [2] of the same molecule?
Answer: -0.0165

Question: What about the Bliss excess [3] of the same molecule?
Answer: -0.0423

Question: What about the Bliss excess [4] of the same molecule?
Answer: 0.0058

Question: What about the Bliss excess [5] of the same molecule?
Answer: -0.0211

Question: And the Bliss excess [6]?
Answer: -0.0137

Question: And the Bliss excess [7]?
Answer: 0.0105

Question: And the Bliss excess [8]?
Answer: -0.0207

Question: What about the Bliss excess [9] of the same molecule?
Answer: 0.0298

Question: And the Bliss excess (J82 (Bladder Carcinoma))?
Answer: 0

Question: What about the Bliss excess [10] of the same molecule?
Answer: -0.0115

Question: What about the Bliss excess [11] of the same molecule?
Answer: -0.0006

Question: And the Bliss excess [12]?
Answer: -0.0363

Question: What about the Bliss excess (CAL-78 (Chondrosarcoma)) of the same molecule?
Answer: -0.0694

Question: And the Bliss excess [13]?
Answer: -0.0202

Question: And the Bliss excess [14]?
Answer: 0.0548

Question: And the Bliss excess (IGR-1 (Melanoma))?
Answer: -0.0032

Question: What about the Bliss excess [15] of the same molecule?
Answer: -0.0268

Question: And the Bliss excess [16]?
Answer: -0.0113

Question: What about the Bliss excess [17] of the same molecule?
Answer: -0.117

Question: With `CN(C)CCCOc1ccc(-c2ccc3ncc4c(c3c2)n(C2CCOCC2)c(=O)n4C)cn1` [AZD0156] + O=C(c1cc(Cc2n[nH]c(=O)c3ccccc23)ccc1F)N1CCN(C(=O)C2CC2)CC1 [Olaparib] (first compound max 3 µM, partner max 3 µM) as the molecule, how does the Bliss excess [1] read?
Answer: -0.0155

Question: What about the Bliss excess [2] of the same molecule?
Answer: 0.0104

Question: What about the Bliss excess [3] of the same molecule?
Answer: -0.0145

Question: What about the Bliss excess [4] of the same molecule?
Answer: 0.0798

Question: And the Bliss excess [5]?
Answer: 0.015

Question: And the Bliss excess [6]?
Answer: -0.0026

Question: And the Bliss excess [7]?
Answer: 0.0221

Question: What about the Bliss excess [8] of the same molecule?
Answer: -0.0125

Question: What about the Bliss excess [9] of the same molecule?
Answer: 0.0621

Question: And the Bliss excess (J82 (Bladder Carcinoma))?
Answer: -0.0375

Question: And the Bliss excess [10]?
Answer: 0.0654

Question: What about the Bliss excess [11] of the same molecule?
Answer: -0.0192

Question: And the Bliss excess [12]?
Answer: -0.11

Question: And the Bliss excess (CAL-78 (Chondrosarcoma))?
Answer: 0.0042

Question: What about the Bliss excess [13] of the same molecule?
Answer: -0.0285

Question: What about the Bliss excess [14] of the same molecule?
Answer: 0.0313

Question: What about the Bliss excess (IGR-1 (Melanoma)) of the same molecule?
Answer: -0.0006

Question: And the Bliss excess [15]?
Answer: 0.0074

Question: What about the Bliss excess [16] of the same molecule?
Answer: 0.022

Question: And the Bliss excess [17]?
Answer: -0.106

Question: With `C=CCn1c(=O)c2cnc(Nc3ccc(N4CCN(C)CC4)cc3)nc2n1-c1cccc(C(C)(C)O)n1` [AZD1775] + C1CN(CCC1(C(=O)N[C@@H](CCO)C2=CC=C(C=C2)Cl)N)C3=NC=NC4=C3C=CN4 [Capivasertib] (first compound max 3 µM, partner max 3 µM) as the molecule, how does the Bliss excess [1] read?
Answer: 0.0185

Question: And the Bliss excess [2]?
Answer: -0.034

Question: What about the Bliss excess [3] of the same molecule?
Answer: -0.0106

Question: What about the Bliss excess [5] of the same molecule?
Answer: -0.0357

Question: What about the Bliss excess [6] of the same molecule?
Answer: 0.0135

Question: And the Bliss excess [7]?
Answer: -0.0181

Question: What about the Bliss excess [8] of the same molecule?
Answer: -0.0773

Question: And the Bliss excess [9]?
Answer: -0.034

Question: What about the Bliss excess (J82 (Bladder Carcinoma)) of the same molecule?
Answer: -0.0184

Question: And the Bliss excess [10]?
Answer: 0.0399

Question: What about the Bliss excess [11] of the same molecule?
Answer: -0.0075

Question: And the Bliss excess [12]?
Answer: 0.0297

Question: What about the Bliss excess (CAL-78 (Chondrosarcoma)) of the same molecule?
Answer: -0.0614

Question: And the Bliss excess [13]?
Answer: -0.0209

Question: And the Bliss excess [14]?
Answer: -0.0183

Question: What about the Bliss excess (IGR-1 (Melanoma)) of the same molecule?
Answer: 0.011

Question: And the Bliss excess [15]?
Answer: 0.0373

Question: And the Bliss excess [16]?
Answer: -0.0707

Question: What about the Bliss excess [17] of the same molecule?
Answer: -0.0704

Question: What does the source list for `C=CCn1c(=O)c2cnc(Nc3ccc(N4CCN(C)CC4)cc3)nc2n1-c1cccc(C(C)(C)O)n1` [AZD1775] + C[C@@H]1COCCN1C2=NC(=NC(=C2)C3(CC3)[S@](=N)(=O)C)C4=C5C=CNC5=NC=C4 [AZD6738] (first compound max 1 µM, partner max 10 µM)?
Answer: Bliss excess [1]: 0.0462; Bliss excess [2]: -0.0018; Bliss excess [3]: -0.0377; Bliss excess [4]: 0.0335; Bliss excess [5]: -0.0089; Bliss excess [6]: -0.0369; Bliss excess [7]: 0.0726; Bliss excess [8]: -0.0139; Bliss excess [9]: -0.0173; Bliss excess (J82 (Bladder Carcinoma)): 0.0305; Bliss excess [10]: 0.0737; Bliss excess [11]: -0.0278; Bliss excess [12]: -0.101; Bliss excess (CAL-78 (Chondrosarcoma)): 0.0171; Bliss excess [13]: -0.0352; Bliss excess [14]: 0.0218; Bliss excess (IGR-1 (Melanoma)): 0.0632; Bliss excess [15]: -0.0289; Bliss excess [16]: -0.0902; Bliss excess [17]: 0.0235

Question: How did the Bliss excess [1] turn out when `C=CCn1c(=O)c2cnc(Nc3ccc(N4CCN(C)CC4)cc3)nc2n1-c1cccc(C(C)(C)O)n1` [AZD1775] + O=C(c1cc(Cc2n[nH]c(=O)c3ccccc23)ccc1F)N1CCN(C(=O)C2CC2)CC1 [Olaparib] (first compound max 1 µM, partner max 10 µM) was run?
Answer: -0.0182

Question: And the Bliss excess [2]?
Answer: -0.0499

Question: And the Bliss excess [3]?
Answer: -0.0603

Question: And the Bliss excess [4]?
Answer: -0.0324

Question: And the Bliss excess [5]?
Answer: -0.0368

Question: What about the Bliss excess [6] of the same molecule?
Answer: -0.0585

Question: And the Bliss excess [7]?
Answer: -0.0267

Question: What about the Bliss excess [8] of the same molecule?
Answer: -0.0227

Question: And the Bliss excess [9]?
Answer: -0.0485

Question: What about the Bliss excess (J82 (Bladder Carcinoma)) of the same molecule?
Answer: -0.025

Question: And the Bliss excess [10]?
Answer: -0.0239

Question: What about the Bliss excess [11] of the same molecule?
Answer: -0.0416

Question: And the Bliss excess [12]?
Answer: -0.101

Question: And the Bliss excess (CAL-78 (Chondrosarcoma))?
Answer: -0.0833

Question: What about the Bliss excess [13] of the same molecule?
Answer: -0.0697

Question: And the Bliss excess [14]?
Answer: -0.0187

Question: What about the Bliss excess (IGR-1 (Melanoma)) of the same molecule?
Answer: 0.0054

Question: And the Bliss excess [15]?
Answer: -0.0145

Question: And the Bliss excess [16]?
Answer: 0.0045

Question: What about the Bliss excess [17] of the same molecule?
Answer: -0.0775
